For 10 compounds, IC50 results are on record in patent US20050209278A1, “Piperidinyl- and piperazinyl-sulfonylmethyl hydroxamic acids and their use as protease inhibitors” (priority 2002, published 2005).

Structures are written as SMILES. A value given as a limit tells only on which side of the number the result lay.

One assay deals with T1, MMP-13 (Homo sapiens, UniProt P45452).
T1 construct: made in house; host or cells: baculovirus / insect cells
Put plainly: In vitro MMP inhibition, IC50 determination (fluorogenic substrate I). It counts as biochemical. Particulars: value in parentheses; read-out: MMP-13 (IC-50). The method, then:
(§1) Several hydroxamic acids and salts thereof were analyzed in in vitro assays to determine their ability to inhibit the MMP cleavage of peptide substrates. […] and IC50 constants were calculated from the assayed hydroxamic acid-MMP interactions.
(§2) Human recombinant MMP-1, MMP-2, MMP-9, MMP-13, and MMP-14 were used in this assay. All enzymes were prepared in Assignee's laboratories following usual laboratory procedures. Protocols for the preparation and use of these enzymes are available in the scientific literature. See, e.g., Enzyme Nomenclature (Academic Press, San Diego, Calif., 1992) (and the citations therein). See also, Freije et al., “Molecular cloning and expression of collagenase-3, a novel human matrix metalloproteinase produced by breast carcinomas,” J Biol. Chem., 269(24), 16766-16773 (1994).
The MMP-13 was obtained as a proenzyme from a full-length cDNA clone using baculovirus, as described by V. A. Luckow, “Insect Cell Expression Technology,” Protein Engineering: Principles and Practice, pp. 183-218 (edited by J. L. Cleland et al., Wiley-Liss, Inc., 1996). The expressed proenzyme was first purified over a heparin agarose column, and then over a chelating zinc chloride column. The proenzyme was then activated by APMA for use in the assay. Further details on baculovirus expression systems may be found in, for example, Luckow et al., J. Virol., 67, 4566-79 (1993). See also, O'Reilly et al, Baculovirus Expression Vectors: A Laboratory Manual (W.H. Freeman and Co., New York, N.Y., 1992). See also, King et al., The Baculovirus Expression System: A Laboratory Guide (Chapman & Hall, London, England, 1992).
(§3) All MMPs were activated using 4-aminophenylmercuric acetate (“APMA”, Sigma Chemical, St. Louis, Mo.) or trypsin. MMP-9 also was activated using human recombinant MMP-3 (purified in Assignee's laboratory following standard cloning and purification techniques).
(§4) Two fluorogenic, methoxycoumarin-containing polypeptide substrates were used in the MMP inhibition assays: [drawing 427] Here, “Dpa” is 3-(2,4-dinitrophenyl)-L-2,3-diaminopropionyl group, and “MCA” is 7-methoxycoumarin-4-yl acetyl. Substrate (I) was purchased from Baychem (Redwood City, Calif.), and substrate II was prepared Assignee's laboratory. Substrate I was used in the IC50 determination assays, while substrate II was used in the Ki determination assays. In the absence of MMP inhibitory activity, either substrate is cleaved at the Gly-Leu peptide bond. This cleavage separates the highly fluorogenic peptide from the 2,4-dinitrophenyl quencher, thus resulting in increase of fluorescent intensity.
(§5) The stock solutions of the assayed hydroxamic acids (or salts thereof) were prepared in 1% dimethyl sulfoxide (DMSO). These stock solutions were diluted in Buffer A (100 mM Tris-HCl, 100 mM NaCl, 10 mM CaCl2, 0.05% polyoxyethylene 23 lauryl ether, pH 7.5) to obtain solutions with different hydroxamic acid concentrations, i.e., assay solutions with different concentrations of the assayed MMP inhibitory compound. The experiment controls contained the same amount of Buffer A/DMSO as the assayed sample, but contained no hydroxamic acid (or salt thereof).
The assays from which the IC50 determinations were made were performed as follows. The MMPs were activated with either trypsin or APMA (4-aminophenylmercuric acetate, Sigma Chemical, St. Louis, Mo.). The assayed hydroxamic acid samples were incubated in Microfluor™ White Plates (Dynatech, Chantilly, Va.) and analyzed on a Perkin Elmer L550 plate reader (Norwalk, Conn.). The excitation wavelength was 328 nm, and the emission wavelength—415 nm. All samples (assayed hydroxamic acids and controls) were incubated in separate plates at room temperature in the presence of 4 μM of MMP substrate (I). As stated in the previous paragraph, samples containing varying concentrations of the same assayed hydroxamic acid were prepared. Inhibition was measured as a reduction in fluorescent intensity as a function of MMP inhibitor concentration. […]

The next assay has as its target T2, MMP-2 (Homo sapiens, UniProt P08253).
T2 construct: made in house; host or cells: MMP-2-transfected p2AHT2 cells
T2 sequence (P08253 110-660): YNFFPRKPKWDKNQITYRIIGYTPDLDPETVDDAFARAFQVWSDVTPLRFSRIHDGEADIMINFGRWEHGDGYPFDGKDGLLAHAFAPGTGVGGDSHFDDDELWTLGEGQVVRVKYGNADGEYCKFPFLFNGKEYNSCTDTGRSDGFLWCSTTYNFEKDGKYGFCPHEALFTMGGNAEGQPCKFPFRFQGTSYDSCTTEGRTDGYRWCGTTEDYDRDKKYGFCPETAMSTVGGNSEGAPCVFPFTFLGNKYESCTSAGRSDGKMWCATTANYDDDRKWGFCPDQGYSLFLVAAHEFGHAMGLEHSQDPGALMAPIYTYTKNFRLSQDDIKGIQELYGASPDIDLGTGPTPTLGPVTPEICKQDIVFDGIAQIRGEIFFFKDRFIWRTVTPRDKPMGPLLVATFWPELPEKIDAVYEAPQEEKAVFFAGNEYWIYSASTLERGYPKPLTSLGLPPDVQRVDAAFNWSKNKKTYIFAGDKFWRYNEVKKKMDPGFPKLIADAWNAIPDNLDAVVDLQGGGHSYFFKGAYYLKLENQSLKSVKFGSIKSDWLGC
Described as above. Type of assay: biochemical. As to conditions: value in parentheses; read-out: MMP-2 (IC-50). As to the method:
as §1, §2
The MMP-2 proenzyme was purified by gelatin Sepharose chromatography from MMP-2-transfected p2AHT2 cells provided by Dr. Gregory Goldberg of Washington University (St. Louis, Mo.).
as §3, §4, §5
The assays from which the IC50 determinations were made were performed as follows. The MMPs were activated with either trypsin or APMA (4-aminophenylmercuric acetate, Sigma Chemical, St. Louis, Mo.). The assayed hydroxamic acid samples were incubated in Microfluor™ White Plates (Dynatech, Chantilly, Va.) and analyzed on a Perkin Elmer L550 plate reader (Norwalk, Conn.). The excitation wavelength was 328 nm, and the emission wavelength—415 nm. All samples (assayed hydroxamic acids and controls) were incubated in separate plates at room temperature in the presence of 4 μM of MMP substrate (I). As stated in the previous paragraph, samples containing varying concentrations of the same assayed hydroxamic acid were prepared. Inhibition was measured as a reduction in fluorescent intensity as a function of MMP inhibitor concentration.
The above protocols were used to determine IC50 constants and Ki values for the compounds in Examples 1-27 above. All values in Table 2 are given in nM units. The IC50 measurements are in parenthesis.

Regarding `COCCOc1ccc(N2CCN(S(=O)(=O)C3(C(=O)NO)CCN(C4CC4)CC3)CC2)cc1F` [Example 297], the IC50 at MMP-13 was 1.7 nM; at MMP-2, 0.4 nM.

As for `CCCCOc1ccc(N2CCN(S(=O)(=O)C3(C(=O)NO)CCN(C(=O)CN)CC3)CC2)cc1` [Example 292], the IC50 came to 0.7 nM at MMP-13 and 0.2 nM at MMP-2.

`C#CCN1CCC(C(=O)NO)(S(=O)(=O)N2CCN(c3ccc(OCCCC)cc3)CC2)CC1` [Example 303]: the IC50 at MMP-13 and on MMP-2 was 0.1 nM throughout.

`CCCCOc1ccc(N2CCN(S(=O)(=O)C3(C(=O)NO)CCN(C4CC4)CC3)CC2)cc1` [Example 301]: the IC50 was determined as 0.3 nM at MMP-13 and 0.2 nM on MMP-2.

For the compound `CCCCOc1ccc(N2CCN(S(=O)(=O)C3(C(=O)NO)CCN(CC4CC4)CC3)CC2)cc1` [Example 298], the IC50 on MMP-13 turned out to be 0.9 nM; at MMP-2, 1.1 nM.

As for `Cc1cc(N2CCN(S(=O)(=O)C3(C(=O)NO)CCOCC3)CC2)ccc1OC(C)C` [Example 299], the IC50 on MMP-13 turned out to be 9.3 nM; at MMP-2, 12.5 nM.

As to `CCCCOc1ccc(N2CCN(S(=O)(=O)C3(C(=O)NO)CCN(Cc4cccnc4)CC3)CC2)cc1F` [Example 293], the IC50 at MMP-13 stood at 0.8 nM; on MMP-2, 0.3 nM.

Turning to `CCCCOc1ccc(N2CCN(S(=O)(=O)C3(C(=O)NO)CCN(c4ccc(C)cc4)CC3)CC2)cc1F` [Example 296], the IC50 on MMP-13 was 0.9 nM; at MMP-2 it was < 0.1 nM.

For the compound `CS(=O)(=O)c1ccc(N2CCN(S(=O)(=O)C3(C(=O)NO)CCOCC3)CC2)cc1` [Example 300], the IC50 is 61.2 nM on MMP-13 and 27.3 nM at MMP-2.

For `CCCCOc1ccc(N2CCN(S(=O)(=O)C3(C(=O)NO)CCN(c4ccc(C)cc4)CC3)CC2)cc1` [Example 295], the IC50 at MMP-13 and on MMP-2 was < 0.1 nM each time.
